Laboratory results reported in patent US20250051703A1, “EGG OPENER, EX OVO TUMOR XENOGRAFT METHOD, THERAPEUTIC COMPOUND ASSAY, THERAPEUTIC COMPOUND TESTING METHOD VIA EX OVO QUAIL EGG XENOGRAFT ASSAY” (CHILDREN'S CANCER THERAPY DEVELOPMENT INSTITUTE, priority 2021, published 2025).
“Also recorded” adds a separate entry of the source.

Legend:
[1] = test system: HB243 hepatoblastoma cell line; experiment: In vitro % viability dose-response, HB243; type: cell-based, human; details: n=4 replicates per point
[2] = test system: HB282 hepatoblastoma cell line; experiment: In vitro % viability dose-response, HB282; type: cell-based; details: Homo sapiens, n=4 replicates per point
[3] = test system: HepG2 hepatoblastoma cell line; experiment: In vitro % viability dose-response, HepG2; type: cell-based; details: Homo sapiens, n=4 replicates per point
HB243 CAM xenograft = experiment: Quail dose response assay (ex ovo CAM xenograft, osmotic bead drug depot), HB243; type: in vivo; details: Homo sapiens, osmotic bead delivery, 72 hours, read-out: 50% tumor growth inhibition (ex ovo IC50), HB243
Protocol: (§1) The tumor modules for dose response assay are generated as described above but with 5×10^5 cells per 50 μl. Drug was dissolved in DMSO for all levels to a final tumor module concentration of vehicle control, 0.3 μM, 3 μM, or 30 μM with n=6. P-10 beads (catalog #1504144, Bio-Rad, Hercules, CA, USA) are soaked in PBS at the concentration of the modules for four hours at room temperature. Approximately 50 μl of bead solution is added to a 9.5×1.5 mm plastic ring placed on top of the tumor module forming a drug depot. The drug depot provided a constant source of drug keeping the tumor module at a constant concentration despite drug leaving the module for the quail, as shown in FIG. 17. The IR820 has an exponential range between 0.001 and 1 μM as shown in the dose-response curve of FIG. 17A in lumens v. IR820 concentration.
(§2) The quail with tumor module models and drug depots are incubated for 72 hours. Afterwards, 150 μl of 15 mg/ml luciferin (cat #122799, Perkin Elmer) in PBS is added to the modules incubated for 10 minutes and then imaged on an IVIS Lumina (PerkinElmer) for between 15 seconds (for cell lines HepG2) or 1 minute (for cell lines HB243 and HB282).
(§3) The tumor modules for dose response assay were generated as described above but with 5×10^5 cells per 50 μl. […]

HB282 CAM xenograft = experiment: Quail dose response assay (ex ovo CAM xenograft, osmotic bead drug depot), HB282; type: in vivo; details: Homo sapiens, osmotic bead delivery, 72 hours, read-out: 50% tumor growth inhibition (ex ovo IC50), HB282
Protocol: as §1, §2, §3

[4] = test system: HepG2 xenograft CAM assay; experiment: Quail dose response assay (ex ovo CAM xenograft, osmotic bead drug depot), HepG2; type: in vivo, human; details: for dose-response in HepG2 xenograft CAM assay: FIGS. 18H and 18I, radiance
Protocol: as §1, §2
Validation assays are conducted to correlate murine and human cell lines across a range of biologicals and small molecule drugs for pediatric and adult cell lines. B16F10 is a murine melanoma cell line constitutively expressing firefly luciferase (available as cat #BW124734 from Perkin-Elmer, Akron, Ohio USA), which is used to form a CAM xenograft as per the invention herein with the difference of being an adult-type cancer cell line, and radiance reflecting cell viability as impaired by drug. In FIGS. 18A-18J, to analyze drug efficacy on tumor cells, luciferin is added to the scaffold and then imaged by a CCD camera to determine the total xenograft cell viability, with the results indicated as radiance (e.g., steradians/cm^2/s) on the Y axis. See also FIG. 1 at Step 14. […]

HB243 murine xenografts = experiment: Murine in vivo xenograft study, HB243; design: species or system mouse
Protocol: All studies in mice were performed after receiving approval from the institutional animal care and use committee (IACUC) at Children's Cancer Therapy Development Institute and in accordance with ARRIVE Guidelines. HepG2 and HB243 were suspended in Matrigel and injected into n=10 eight week-old female nod scid gamma mice per cell line xenograft (Charles River, Hollister, CA, NOD.CB17-Prkde^scid/NCrCrl) with 2×10^6 cells per 100 μl injection. […] Volasertib (cat #S2235, Selleck Chem) was suspended in 3.75% DMSO and corn oil (cat #C8267, Sigma-Aldrich, St Louis, MO) at a concentration of 1.5 mg/ml with 100 μl injected intraperitoneally with mice chosen for the drug and control group randomly selected to minimize selection bias. The mice were imaged by intraperitoneal injection of luciferin-d according to manufacturer's instructions. The tumors were measured using calipers every 3 days and the equation for volume was […]. At the study end or if the tumors reached 1.5 cc the tumors were removed and measured.
For the murine in vivo xenograft study survival analysis, the tumor endpoint volumes for time-to-event (TTE) analysis were set at 0.75 cc and were collected to 1.5 cc. TTE was defined in days by selecting the day in which the tumor volume equaled or surpassed 0.75 cc. […] The Kaplan-Meier survival plot represents the percentage of animals surviving at different time points during the study. These percentages were generated from the TTE data using GraphPad Prism 9.0 software (Graphpad Software, San Diego, CA, https://www.graphpad.com/scientific-software/prism/). Survival curve comparisons were analyzed using the Mantel-Cox and Gehan-Breslow-Wilcox tests (95% CI) through Graph Pad Prism 9.0 software. For the quail xenograft assay, significance was determined by an unpaired two-tailed t-test with Welch's correction and a p-value less than 0.05 was considered statistically significant. Error bars represent±standard error of the mean (SEM).

HepG2 murine xenografts = experiment: Murine in vivo xenograft study, HepG2; design: species or system mouse; details: FIG. 16F
Protocol: All studies in mice were performed after receiving approval from the institutional animal care and use committee (IACUC) at Children's Cancer Therapy Development Institute and in accordance with ARRIVE Guidelines. HepG2 and HB243 were suspended in Matrigel and injected into n=10 eight week-old female nod scid gamma mice per cell line xenograft (Charles River, Hollister, CA, NOD.CB17-Prkde^scid/NCrCrl) with 2×10^6 cells per 100 μl injection. […] The tumors were measured using calipers every 3 days and the equation for volume was V=L×W×H×0.5(π/6). At the study end or if the tumors reached 1.5 cc the tumors were removed and measured.
For the murine in vivo xenograft study survival analysis, the tumor endpoint volumes for time-to-event (TTE) analysis were set at 0.75 cc and were collected to 1.5 cc. […] Survival curve comparisons were analyzed using the Mantel-Cox and Gehan-Breslow-Wilcox tests (95% CI) through Graph Pad Prism 9.0 software. For the quail xenograft assay, significance was determined by an unpaired two-tailed t-test with Welch's correction and a p-value less than 0.05 was considered statistically significant. […]

[5] = test system: e10 quail embryo liver and kidney; details: Japanese quail, in vivo
Protocol: Cediranib (Cat #S1017, Selleck Chemicals LLC, Houston, TX) and erlotinib (Cat #S7786) were purchased from Selleck Chemicals and reconstituted in dimethyl sulfoxide (DMSO) following the manufacturers recommendations and diluted to 10 mM stock concentration.
Fertilized Japanese quail eggs were incubated and plated as described previously. Quail were allowed to grow ex ovo in six-well plates until the quail had passed the patterning phase (e8 based on plating date). Each experimental arm was assigned n=4 viable quail and treated with one of four experimental conditions: vehicle, cediranib, ertoltinib, and cediranib+erlotinib. […] Stock concentrations were diluted in phosphate-buffered saline (PBS) to the respective target concentrations and to a final volume of 25 μL per agent. DMSO for vehicle was set at the DMSO volume used in the cediranib+erlotinib combination (8.4 μL DMSO).
Vehicle and diluted agents were subsequently applied dropwise to the quail chorioallantoic membrane. Quail were photographed at 0 hours, 24 hours, and 48 hours.

[6] = cited from earlier work
[7] = test system: U48484 mouse rhabdomyosarcoma cells; experiment: Quail tumor assay: U48484 tumor module xenograft on quail CAM, bioluminescence; type: in vivo
Protocol: U48484 mouse rhabdomyosarcoma cells were cultured, trypsinized and added to two different vials of hydrogel making a concentration of 10^6 cells per 50 μl. BEZ235 (cat #S1009, Selleck Chemicals, Houston, TX) in a solution of 0.1% DMF (cat #TS-20673, Thermo Fisher Scientific) in PBS was added to 10^6 U48484 mouse rhabdomyosarcoma cells mixed with 50 μl hydrogel for a final concentration of 500 nM BEZ235. For untreated eggs, 0.1% DMF in PBS was used as a control. 50 μl of cells/hydrogel/drug mixture were added to each scaffold and incubated for approximately 30-45 minutes at 37° C. and 100% humidity. As detailed above, a superficial injury was created on the chorioallantoic membrane and tumor module containing either drug or control was placed on top. Quail bearing tumor module models were incubated for 72 hours. Add the end of the incubation, 100 μl of PBS containing 1.5 mg of luciferin-d (cat #122799, PerkinElmer) was added to the 3D scaffold, incubated for 10 minutes in the dark, and bioluminescence was measured using a Fluorchem instrument (ProteinSimple, San Jose, CA). The quail were imaged with an 8 minute exposure for total light emission.
u48484 is a murine rhabdomyosarcoma cell line constitutively expressing firefly luciferase (available from the originating laboratory as described in Aslam et al, PDGFRβ reverses EphB4 signaling in alveolar rhabdomyosarcoma, Proc Natl Acad Sci USA. 2014 Apr. 29; 111 (17): 6383-8. doi: 10.1073/pnas. 1403608111; PMID 24733895), which is used to form a CAM xenograft as per the invention herein except being a non-human tumor cell line.
U48484 mouse rhabdomyosarcoma cells were cultured, trypsinized and added to two different vials of hydrogel making a concentration of 10^6 cells per 50 μl. […] Add the end of the incubation, 100 μl of PBS containing 1.5 mg of luciferin-d (cat #122799, Perkin Elmer) was added to the 3D scaffold, incubated for 10 minutes in the dark, and bioluminescence was measured using a Fluorchem instrument (Protein Simple, San Jose, CA). […]

[8] = test system: B16F10 murine melanoma cell line; experiment: B16F10 xenograft CAM assay, radiance; type: in vivo; details: FIG. 18A
Protocol: Validation assays are conducted to correlate murine and human cell lines across a range of biologicals and small molecule drugs for pediatric and adult cell lines. B16F10 is a murine melanoma cell line constitutively expressing firefly luciferase (available as cat #BW124734 from Perkin-Elmer, Akron, Ohio USA), which is used to form a CAM xenograft as per the invention herein with the difference of being an adult-type cancer cell line, and radiance reflecting cell viability as impaired by drug. In FIGS. 18A-18J, to analyze drug efficacy on tumor cells, luciferin is added to the scaffold and then imaged by a CCD camera to determine the total xenograft cell viability, with the results indicated as radiance (e.g., steradians/cm^2/s) on the Y axis. See also FIG. 1 at Step 14.

[9] = test system: murine glioma cell line GL261; details: literature (Yang, et al.); cited from earlier work
[10] = test system: murine glioma cell line GL261; details: literature (Yang, et al.); cited from earlier work; remark: listed apart in the source
[11] = test system: Hep3B human hepatocellular carcinoma; details: literature (Li, et al.); cited from earlier work
[12] = test system: BT474 human breast cancer cell line; experiment: BT474 xenograft CAM assay, radiance; type: in vivo; details: FIGS. 18C and 18D

CC[C@@H]1C(=O)N(C)c2cnc(Nc3ccc(C(=O)N[C@H]4CC[C@H](N5CCN(CC6CC6)CC5)CC4)cc3OC)nc2N1C(C)C [volasertib]
IC50 ([1]; Homo sapiens): 191 nM
IC50 [1]: 282 nM
IC50 [2]: 916 nM
IC50 [3]: 508 nM
IC50 (HB243 CAM xenograft): 1460 nM
IC50 (HB282 CAM xenograft): 1040 nM
sensitivity of HepG2 ex ovo ([4]; FIG. 16D, CAM xenograft, osmotic bead delivery, 72 hours): insensitive at any concentration
dose-response in HepG2 xenograft CAM assay [4]: dose-response relationship can be observed
tumor growth of HB243 mouse xenograft relative to the control group (HB243 murine xenografts; FIG. 16E): statistically significant reduction in growth
treatment mice surviving to the endpoint longer than control (average) (HB243 murine xenografts; HB243 mouse xenograft, vs vehicle): 4.5 days
survival of HB243 murine xenografts, treatment vs control, p (Mantel-Cox test) (HB243 murine xenografts; n=4, event = tumor volume equal or greater than 0.75 cc, intraperitoneal): 0.031
survival / response of HepG2 mouse xenograft (HepG2 murine xenografts): no increase in survival; also recorded: continued to be resistant

C#Cc1cccc(Nc2ncnc3cc(OCCOC)c(OCCOC)cc23)c1 [erlotinib]
remaining viable quail 48 hours after dosing [5]: 3
maximum clinically-achievable serum concentrations (Cmax) in human patients [6]: 1300 ng/mL

COc1cc2c(Oc3ccc4[nH]c(C)cc4c3F)ncnc2cc1OCCCN1CCCC1 [cediranib]
remaining viable quail 48 hours after dosing [5]: 3
maximum clinically-achievable serum concentrations (Cmax) in human patients [6]: 42 ng/mL

Cn1c(=O)n(-c2ccc(C(C)(C)C#N)cc2)c2c3cc(-c4cnc5ccccc5c4)ccc3ncc21 [BEZ235]
significance p, treated (n=6) vs vehicle control (n=4), tumor bioluminescence ([7]; FIG. 14, unpaired two-tailed t-test with Welch's correction): 0.0048
inhibition of tumor growth in u48484 xenograft CAM assay ([7]; FIG. 18J): drug-related inhibition of tumor growth can be observed
inhibition at 0.5 µM ([7]; Mus musculus, Rhabdomyosarcoma cell, 500 nM in the hydrogel volume, 72 hours on CAM, read-out: reduction in U48484 tumor module bioluminescence (tumor cell viability)): 20%

Cc1ncsc1-c1ccc(CNC(=O)[C@@H]2C[C@@H](O)CN2C(=O)[C@@H](NC(=O)COCCOCCOCCNC(=O)C[C@@H]2N=C(c3ccc(Cl)cc3)c3c(sc(C)c3C)-n3c(C)nnc32)C(C)(C)C)cc1 [MZ1]
dose-response in HepG2 xenograft CAM assay [4]: dose-response relationship can be observed
dose-response in B16F10 xenograft CAM assay [8]: dose-response relationship exists

Cc1sc2c(c1C)C(c1ccc(Cl)cc1)=N[C@@H](CC(=O)Nc1ccc(OCCOCCOCCOCCNc3cccc4c3C(=O)N(C3CCC(=O)NC3=O)C4=O)cc1)c1nnc(C)n1-2 (stereo partly shown) [ARV-825]
efficacy against GL261 in vitro [9]: showing efficacy
efficacy against GL261 in vivo [10]: showing efficacy

Cc1sc2c(c1C)C(c1ccc(Cl)cc1)=N[C@@H](CC(=O)OC(C)(C)C)c1nnc(C)n1-2 [JQ1]
efficacy against Hep3B in vivo [11]: showed efficacy

CS(=O)(=O)CCNCc1ccc(-c2ccc3ncnc(Nc4ccc(OCc5cccc(F)c5)c(Cl)c4)c3c2)o1 [lapatinib]
dose-response in BT474 xenograft CAM assay [12]: dose-response relationship
